Patent US7238689B2, “Isoxazoline derivative and herbicide comprising the same as active ingredient” (Ihara Chemical Industry Co., Ltd., priority 2001, dated 2007)

Experiments:
[1] = test system: Echinochloa oryzicola Vasing; experiment: Herbicidal effect by paddy field soil treatment; type: in vivo; parameters: scale not given here; settings: wettable powder, active ingredient 1000 g/ha, examined at the 21st day from the treatment
Summary of the method: (§1)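 Seeds sown in puddled paddy soil under 3 cm of water; the next day wettable powders diluted in water were dropped onto the water surface at 1,000 g active ingredient/ha. Plants grown in a greenhouse, with herbicidal effect scored on day 21 against a rating standard.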

[2] = test system: Monochoria vaginalis (Murm. f.) Presl var. plantaginea (Roxb.) Solms-Laub.; experiment: Herbicidal effect by paddy field soil treatment; type: in vivo; parameters: scale not given here; settings: wettable powder, active ingredient 1000 g/ha, examined at the 21st day from the treatment
Summary of the method: as §1

[3] = test system: Setaria viridis (L.) Beauv.; experiment: Herbicidal effect by upland field soil treatment; type: in vivo; parameters: scale not given here; settings: active ingredient 1000 g/ha, examined at 21st day from treatment
Excerpt: (§2) An upland field soil was filled in a plastic pot of 80 cm^2. Seeds of Echinochloa crus-galli (L.) Beauv. var. crusgalli and Setaria viridis (L.) Beauv. were sowed, followed by covering with the same soil. […] Then, breeding was made in a greenhouse, and the herbicidal effect of each wettable powder was examined at the 21st day from the treatment in accordance with the standard shown in Table 21.

[4] = test system: Echinochloa crus-galli (L.) Beauv. var. crusgalli; experiment: Herbicidal effect by upland field soil treatment; type: in vivo; parameters: scale not given here; settings: active ingredient 1000 g/ha, examined at 21st day from treatment
Excerpt: as §2

[5] = test system: Setaria viridis (L.) Beauv.; experiment: Herbicidal effect by upland foliage treatment; type: in vivo; parameters: scale not given here; settings: active ingredient 1000 g/ha, examined at 14th day from treatment
Summary of the method: (§3)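 Two-week-old greenhouse plants in sand were sprayed over the whole foliage with water-diluted wettable powder at 1,000 liters per hectare, giving 1,000 g active ingredient per hectare. Herbicidal effect scored on a rating standard at day 14 after treatment.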

[6] = test system: Echinochloa crus-galli (L.) Beauv. var. crus-galli; experiment: Herbicidal effect by upland foliage treatment; type: in vivo; parameters: scale not given here; settings: active ingredient 1000 g/ha, examined at 14th day from treatment
Summary of the method: as §3

Row | Compound | melting point [°C] | Herbicidal effect index, Echinochloa oryzicola Vasing [1] | Herbicidal effect index, Monochoria vaginalis (Burm. F.) Presl var. plantaginea (Roxb.) Solms-Laub. [2] | herbicidal effect (index per standard of Table 21), Setaria viridis (L.) Beauv. [3] | herbicidal effect (index per standard of Table 21), Echinochloa curs-galli (L.) Beauv. Var. crus-galli [4] | herbicidal effect (index per standard of Table 21), Setaria viridis (L.) Beauv. [5] | herbicidal effect (index per standard of Table 21), Echinochloa curs-galli (L.) Beauv. Var. crus-galli [6]
1 | CC1(C)CC(S(=O)(=O)Cc2c(C(F)(F)F)nn(-c3ccccc3)c2Cl)=NO1 [3-0002, 3-(5-chloro-1-phenyl-3-trifluoromethyl-1H-pyrazol-4-ylmethylsulfonyl)-5,5-dimethyl-2-isoxazoline] | 132 to 133 | 5 | 5 | 5 | 5 |  | 
2 | CCS(=O)(=O)c1c(CS(=O)(=O)C2=NOC(C)(C)C2)c(C(F)(F)F)nn1-c1ccccc1 [3-0004, 5,5-dimethyl-3-(5-ethylsulfonyl-1-phenyl-3-trifluoromethyl-1H-pyrazol-4-ylmethylsulfonyl)-2-isoxazoline] | 158 to 160 | 5 | 5 | 5 | 5 |  | 
3 | CC1(C)CC(SCc2c(Cl)nn(C(F)F)c2C(F)(F)F)=NO1 [3-0009, 3-(3-chloro-1-difluoromethyl-5-trifluoromethyl-1H-pyrazol-4-ylmethylthio)-5,5-dimethyl-2-isoxazoline] | 89 to 90 | 5 | 5 | 5 | 5 |  | 
4 | CC1(C)CC(S(=O)(=O)Cc2c(C(F)(F)F)nn(C(F)F)c2Cl)=NO1 [3-0010, 3-(5-chloro-1-difluoromethyl-3-trifluoromethyl-1H-pyrazol-4-ylmethylsulfonyl)-5,5-dimethyl-2-isoxazoline] | 126 to 127 |  |  |  |  | 4 | 5
5 | CC1(C)CC(S(=O)(=O)Cc2c(Cl)nn(C(F)F)c2C(F)(F)F)=NO1 [3-0011, 3-(3-chloro-1-difluoromethyl-5-trifluoromethyl-1H-pyrazol-4-ylmethylsulfonyl)-5,5-dimethyl-2-isoxazoline] | 136 to 137 |  |  |  |  | 4 | 5
6 | Cn1nc(C(F)(F)F)c(CS(=O)(=O)C2=NOC(C)(C)C2)c1Oc1ccccc1Cl [3-0014, 3-(5-(2-chlorophenoxy)-1-methyl-3-trifluoromethyl-1H-pyrazol-4-ylmethylsulfonyl)-5,5-dimethyl-2-isoxazoline] | 67 to 70 | 5 | 5 |  |  |  | 
7 | Cn1nc(C(F)(F)F)c(CS(=O)(=O)C2=NOC(C)(C)C2)c1C#N [3-0016, 3-(5-cyano-1-methyl-3-trifluoromethyl-1H-pyrazol-4-ylmethylsulfonyl)-5,5-dimethyl-2-isoxazoline] | 105 to 108 | 5 | 5 | 5 | 5 |  | 
8 | CC1(C)CC(S(=O)(=O)Cc2c(C(F)(F)F)nn3c2OCCC3)=NO1 [3-0019, 3-(5,5-dimethyl-2-isoxazolin-3-ylsulfonylmethyl)-2-trifluoromethyl-6,7-dihydro-5H-pyrazolo[5,1-b][1,3]oxazine] | 151 to 152 |  |  | 5 | 5 |  | 
